Experimental data taken from patent EP0461869A2, “Chemotherapeutic agents” (MERCK & CO. INC., priority 1990, dated 1991).

Experiments:
[1] = biological target: T1, Farnesyl-protein transferase from bovine brain (partially purified enzyme preparation) (Bos taurus, UniProt P29702+P49355); assay: Competition of Ras farnesylation by polyisoprenoids and peptides (Hepes-buffered assay, immunoprecipitation and nitrocellulose filtration); assay type: biochemical; conditions: for IC50: [Leu68]RAS1(term.)CVLS at 1 µM, 0.5 µM [3H]FPP, 10 min at 24° C, average of 2-5 determinations, >> = no competition at the highest concentration tested; for competition of the farnesylation reaction (in words): 0.5 µM [3H]FPP and 1 µM Ras
T1 construct: the indicated compounds were incubated with this partially purified enzyme preparation; from tissue; host or cells: bovine brain; chromatographed on DEAE-Sephacel and N-octyl agarose
Method: Enzyme reactions were analyzed by SDS-PAGE (sodium dodecyl sulfate/polyacrylamide gel electrophoresis) or immunoprecipitation. For gel analysis, each labeling reaction was boiled for 3 min in buffer containing 1% SDS/100 mM Tris-Cl, pH 6.8/10% glycerol/1% 2-mercaptoethanol, and loaded directly on 13.7% polyacrylamide gels. Radiolabeled Ras was visualized by autoradiography after fluorographic enhancement with Enlightning (New England Nuclear). For immunoprecipitation of radiolabelled Ras, reactions were first extracted with Triton X-114 using a modification of the procedure of Bordier (J. Biol. Chem. 256:1604-1607(1981). An aliquot (150 µl) of 1% Triton X-114 (Pierce) was added to the 50 µl reaction mix to achieve a final Triton X-114 concentration of 0.75%. Following 10 min. on ice, the tubes were transfered to a 37°C bath for 3 min. The cloudy solution was then centrifuged at 10,000 x g for 5 min. at room temperature. The upper aqueous phase was removed, and the detergent phase was diluted by the addition of 150 µl cold phosphate-buffed saline plus 150 µl of Ras monoclonal antibody Y13-259 coupled to Sepharose-protein A beads (Gutierrez et al. EMBO J. 8:1093-1098(1989) and Hancock et al. Cell 57:1167-1177(1989).
Farnesyl-protein transferase from bovine brain was chromatographed on DEAE-Sephacel (Pharmacia, 0-0.8 M NaCl gradient elution) and N-octyl agarose (Sigma, 0-0.6 M NaCl gradient elution). […] Reactions were analyzed by immunoprecipitation without the Triton X-114 extraction step followed by Nitrocellulose filtration.

[2] = biological target: bovine brain farnesylprotein transferase activity (Bos taurus, UniProt P29702+P49355); assay: Apparent Km estimation for farnesylation of Ras, varying [14C]FPP and [Leu61]Ha Ras concentration; assay type: biochemical; conditions: [14C]FPP varied 0.03-30 µM, [Leu61]Ha Ras varied 0.03-250 µM; estimated
Method: Polyisoprenylation of Ras⁻ [³H]mevalonic acid (35 Ci/mmol) and [³H]farnesyl-PPi(FPP) FPP (20 Ci/mmol) were purchased from New England Nuclear. [¹⁴C]FPP (49.7 mCi/mmol) was prepared enzymatically from partially purified prenyl transferase, [4-¹⁴C]isopentyl-PPi (47.9 mCi/mmol, Amersham), and geranyl-PPi. Reactions contained 280 pmol (10 µCi) of [³H]mevalonic acid, 500 pmol (0.025 µCi) of [¹⁴C]FPP or 25 pmol (0.5 µci) of [³H]FPP. In a standard 50 µl reaction, 250 pmol of Ras purified from E. coli (Gibbs et al. Proc. Natl. Acad. Sci. USA 86:6630-6634(1989)) was added to 35 µl of rabbit reticulocyte lysate (Promega, L4210) or a tissue extract (100,00 x g supernatant, 10 mg/ml). Buffer conditions were adjusted by the addition of one-tenth volume of 500 mM Tris-Cl, pH 8.0/50 mM MgCl₂ or one-tenth volume of 500 mM NaHepes, pH 7.5/50 mM MgCl₂/50mM dithiothreitol. In the Tris-buffered assay, the reactions were incubated for 1 hour at 24°C. Reaction velocities in the Hepes buffered assays were at least four times greater, and incubations were for 10 minutes at 24°C. Tissue extracts were prepared as described previously [(ethylenebis(oxyethylenenitrilo)]tetra-acetic acid in buffer containing 50 mM Tris-Cl, pH 8.0/1 mM EGTA/1 mM MgCl₂/1 mM dithiothreitol/10 µl/ml aprotinin/0.5 mM phenylmethlysulfonyl fluoride. […]

IC50 [1]	competition of the farnesylation reaction (in words) [1]	Km [2]	Molecule
67 µM			CC(C)=CCC/C(C)=C/COP(=O)(O)OP(=O)(O)O [Geranyl-PPi]
325 µM			CC(C)=CCOP(=O)(O)OP(=O)(O)O [Dimethylallyl-PPi]
0.7 µM	potently inhibited	0.3 µM	CC(C)=CCC/C(C)=C/CC/C(C)=C/COP(=O)(O)OP(=O)(O)O [Farnesyl-PPi]

Second part, the molecule before the results:

Molecule	IC50 [1]	competition of the farnesylation reaction (in words) [1]	Km [2]
Cys-Val-Leu-Ser (CVLS; printed: Cys-Val-Leu-Ser)	2.2 µM		
CC(C)=CCCC(C)=CCCC(C)=CCO [Farnesol]	> 100 µM	inactive	
S-(trans, trans) farnesyl-CVIM	1.4 µM		
S-(trans, trans) farnesyl-CVLS	28 µM		
CC(C)=CCC/C(C)=C/CC/C(C)=C/CC/C(C)=C/COP(=O)(O)OP(=O)(O)O [Geranylgeranyl-PPi]	1.4 µM	potently inhibited	
CC(C)=CCC/C(C)=C/CC/C(C)=C/CC/C(C)=C/CO [Geranylgeraniol]	> 100 µM	inactive	
